Assay results from patent publication US10857105B2, “Compounds and compositions for intracellular delivery of therapeutic agents” (ModernaTX, Inc., priority 2017, dated 2020).

What was measured:
[1] = tested on: luciferase (Luc) mRNA; assay: Luciferase expression after intramuscular administration to mice; format: in vivo; settings: intramuscular; for Total flux 6 hours after intramuscular administration, 0.01 mpk Dose: Luc mRNA; for Novel lipid/MC3 expression ratio, i.m. Luc: luciferase, 6 hr. time point, relative to MC3 formulation
Text: The numbers 1-7 in this figure correspond to MC3, Compounds 168-170, and 173-175 respectively.
FIGS. 18A and 18B show the results of luciferase expression measured upon intramuscular administration of various nanoparticle compositions to CD-1 mice at 0.01 mpk. FIG. 18A is a bar graph showing total flux at 6 hr after administration. The numbers above each bar indicate the expression ratio relative to MC3. […] Numbers 1-11 in the Figures refer to compositions containing the following: 1: MC3, 2: Compound 143, 3: Compound 49; 4: Compound 113; 5: Compound 61; 6: Compound 72; 7: Compound 75; 8: Compound 71; 9: Compound 128; 10: Compound 156; 11: Compound 157.
The numbers 1-9 in this figure correspond to MC3, and Compounds 178, 181, 182, 218, 198, 200, 233, and 239, respectively.
The total flux (measured by area under the curve, AUC) induced by administration of a formulation including a given lipid relative to that induced by administration of a formulation including MC3 was also measured for several lipids.
Sample formulations including modified luciferase (Luc) mRNA prepared and administered intramuscularly and the resulting expression and immunogenicity were evaluated simultaneously. Formulations including compounds according to Formula (I), (IA), (IB), (II), (IIa), (IIb), (IIc), (IId), (IIe), (IIf), (IIg), or (III) were prepared and administered at dose of and 0.01 mpk.

[2] = Encapsulation efficiency of RNA in nanoparticle compositions (RIBOGREEN assay); format: physicochemical
Outline: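 Lipid nanoparticles (ionisable lipid:DSPC:cholesterol:PEG-DMG 50:10:38.5:1.5 mol %) carrying N1-methylpseudouridine luciferase or hEPO mRNA diluted to about 5 μg/mL in TE, pH 7.5, with or without 2% Triton X-100, 15 min at 37° C. RiboGreen fluorescence (ex ~480, em ~520 nm) blank-subtracted; free RNA = intact/disrupted signal.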

[3] = Particle size and polydispersity index of nanoparticle compositions (Zetasizer Nano ZS); format: physicochemical
Outline: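 Formulations of ionizable lipid, DSPC, cholesterol and PEG-DMG (50:10:38.5:1.5 mol %) carrying Luc or hEPO mRNA with all uridines as N1-methyl pseudouridine. Dynamic light scattering in 1×PBS gave particle size and polydispersity; zeta potential read in 15 mM PBS.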

[4] = tested on: modified luciferase; assay: Luciferase expression in liver, lung, spleen and femur 6 hours after intravenous administration to mice; format: in vivo; settings: 6 hours after intravenous 0.5 mpk, mice
Outline: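 Mice (n=3) got a single 0.5 mpk IV dose of each nanoparticle composition, with MC3 and PBS controls alongside. Organ luminescence flux was read 6 h post-dose.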

[5] = tested on: luciferase (Luc) mRNA; assay: Luciferase expression (whole body bioluminescence) after intravenous administration to mice; format: in vivo; settings: for Novel lipid/MC3 expression ratio, i.v.: intravenous, luciferase, 6 hr. time point, relative to MC3 formulation
Outline: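 Luc mRNA nanoparticles were given IV at 0.5 mg/kg to groups of six mice, and whole-body bioluminescent flux was imaged 3, 6 and 24 h post-dose. Flux AUC for each lipid formulation was reported as a ratio to the MC3 reference formulation.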

[6] = Table 1B, formulated with hEPO mRNA
[7] = Table 1A, lipid:DSPC:cholesterol:PEG-DMG 50:10:38.5:1.5 mol %
[8] = Table 1D, compositions for subcutaneous administration, # formulated with hEPO mRNA
[9] = Table 1E, compositions for subcutaneous administration

Row | Compound | Total flux 6 hours after intramuscular administration, 0.01 mpk Dose [1] | EE [2, 6] | Size [3, 7] | Size [3, 6] | Size [3, 8] | Size [3, 9] | Total Flux, Liver [4] | Total Flux, Lung [4] | Total Flux, Spleen [4] | Novel lipid/MC3 expression ratio, i.m. Luc [1] | Novel lipid/MC3 expression ratio, i.v. [5] | EE [2, 7] | Size ([3]; Table 1C, compositions for subcutaneous administration) | AUC ([5]; intravenous administration (Table 3D))
1 | CCCC/C=C\CCC(CC/C=C\CCCC)OC(=O)CCCCCCCN(CCO)CCCCCCCC(=O)OCCCCCCCCC [Compound 60, (5Z,12Z)-Heptadeca-5,12-dien-9-yl 8-((2-hydroxyethyl)(8-(nonyloxy)-8-oxooctyl)amino)octanoate] | 9.48E+07 p/s | 95.20% | 95.1 nm | 88.9 nm | 87.4 nm | 93.3 nm | 1.54E+09 | 6.25E+06 | 7.12E+06 | – | – | – | – | –
2 | CCCCCCCCCOC(=O)CCCCCCCN(CCCCCCCC(=O)OC(CCCCCCCC)CCCCCCCC)CC(O)CO (centres unmarked) [Compound 69, Heptadecan-9-yl 8-((2,3-dihydroxypropyl)(8-(nonyloxy)-8-oxooctyl)amino)octanoate] | 8.83E+06 p/s | – | 77.2 nm | – | – | 71.8 nm | 2.24E+08 | 7.34E+05 | 2.54E+06 | 0.27 | 0.30 | – | – | –
3 | CCCCCCCCC(CCCCCCCC)OC(=O)CCCCCCCN(CCO)CCCC(=O)OC(CCCCC)CCCCCCCC (centres unmarked) [Compound 71, Heptadecan-9-yl 8-((2-hydroxyethyl)(4-oxo-4-(tetradecan-6-yloxy)butyl)amino)octanoate] | – | – | 71 nm | – | – | – | 7.93E+08 | 4.86E+06 | 8.04E+06 | 0.08 | 0.42 | 97.54% | – | –
4 | CCCCCCCCCOC(=O)CCCCCCCN(CCCCCCCC(=O)OC(CCCCCCCC)CCCCCCCC)CCCNC(=S)N(C)C [Compound 111, Heptadecan-9-yl 8-((3-(3,3-dimethylthioureido)propyl)(8-(nonyloxy)-8-oxooctyl)amino)octanoate] | 1.58E+08 p/s | 91.23% | 116.7 nm | 93.3 nm | 94.5 nm | 88.9 nm | 4.83E+09 | 2.57E+07 | 2.44E+08 | – | – | – | – | –
5 | CCCCCCCCC(C)OC(=O)CCCCCN(CCO)CCCCCCCC(=O)OC(CCCCCCCC)CCCCCCCC (centres unmarked) [Compound 122, Heptadecan-9-yl 8-((6-(decan-2-yloxy)-6-oxohexyl)(2-hydroxyethyl)amino)octanoate] | 9.19E+07 p/s | 96.27% | 69.3 nm | 70.2 nm | – | – | 2.63E+09 | 2.77E+07 | 1.56E+07 | – | – | – | 80.2 nm | –
6 | CCCCCCCCCOC(=O)CCCCCCCN(CCCCCCCC(=O)OC(CCCCCCCC)CCCCCCCC)C(CO)CO [Compound 156, Heptadecan-9-yl 8-((1,3-dihydroxypropan-2-yl)(8-(nonyloxy)-8-oxooctyl)amino)octanoate] | – | – | 68.1 nm | – | – | – | 6.51E+08 | 1.92E+06 | 1.82E+07 | 0.06 | 0.60 | – | – | 1.170E+011 p/s*h
7 | CCCCCCCCCOC(=O)CCCCCCCN(CCCCCCCC(=O)OC(CCCCCCCC)CCCCCCCC)CCCNc1c(N(C)C)c(=O)c1=O [Compound 169, Heptadecan-9-yl 8-((3-((2-(dimethylamino)-3,4-dioxocyclobut-1-en-1-yl)amino)propyl)(8-(nonyloxy)-8-oxooctyl)amino)octanoate] | – | – | 87.4 nm | – | – | – | – | – | – | 3.3 | 0.11 | – | – | –
8 | CCCCCCCCCOC(=O)CCCCCCCN(CCCCCCCC(=O)OC(CCCCCCCC)CCCCCCCC)CCCN/C(=C/[N+](=O)[O-])NC [Compound 170, Heptadecan-9-yl (E)-8-((3-((1-(methylamino)-2-nitrovinyl)amino)propyl)(8-(nonyloxy)-8-oxooctyl)amino)octanoate] | – | – | 96.0 nm | – | – | – | – | – | – | 5.3 | 0.02 | – | – | –
9 | CCCCCCCCCOC(=O)CCCCCCCN(CCCCCCCC(=O)OC(CCCCCCCC)CCCCCCCC)CCCNC(=O)OC [Compound 181, Heptadecan-9-yl 8-((3-((methoxycarbonyl)amino)propyl)(8-(nonyloxy)-8-oxooctyl)amino)octanoate] | – | – | 78.7 nm | – | – | – | – | – | – | 0.97 | 0.27 | 88.9% | – | –
10 | CCCCCCCCCOC(=O)CCCCCCCN(CCCCCCCC(=O)OC(CCCCCCCC)CCCCCCCC)CCCNc1c(NC)c(=O)c1=O [Compound 182, Heptadecan-9-yl 8-((3-((2-(methylamino)-3,4-dioxocyclobut-1-en-1-yl)amino)propyl)(8-(nonyloxy)-8-oxooctyl)amino)octanoate] | – | – | 84.4 nm | – | – | – | – | – | – | 6.80 | 0.66 | 99.0% | – | –
11 | CCCCCCCCCOC(=O)CCCCCCCN(CCCCCCCC(=O)OC(CCCCCCCC)CCCCCCCC)CCCNC(=O)CO [Compound 198, Heptadecan-9-yl 8-((3-(2-hydroxyacetamido)propyl)(8-(nonyloxy)-8-oxooctyl)amino)octanoate] | – | – | 84.2 nm | – | – | – | – | – | – | 0.52 | 0 | 99.5% | – | –
12 | CCCCCCCCCOC(=O)CCCCCCCN(CCCCCCCC(=O)OC(CCCCCCCC)CCCCCCCC)CCCN/C(=N/S(C)(=O)=O)N(C)C [Compound 233, Heptadecan-9-yl (Z)-8-((3-(3,3-dimethyl-2-(methylsulfonyl)guanidino)propyl)(8-(nonyloxy)-8-oxooctyl)amino)octanoate] | – | 97.6% | 66.9 nm | 93.7 nm | 87.0 nm | – | – | – | – | 0.05 | – | 97.81% | – | –
13 | CCCCCCCCCOC(=O)CCCCCCCN(CCCCCCCC(=O)OC(CCCCCCCC)CCCCCCCC)CCCC(=O)NC [Compound 239, Heptadecan-9-yl 8-((4-(methylamino)-4-oxobutyl)(8-(nonyloxy)-8-oxooctyl)amino)octanoate] | – | 82.6% | 55.8 nm | 71.3 nm | – | – | – | – | – | 0.01 | – | 90.42% | – | –
